Patent US6465429B1, “Antimicrobial cationic peptides” (priority 1995, dated 2002)
Ends that are not written are not given here.

Key:
[1] = Synergy of MBI 26 with lysozyme and further antibiotics (reduction in MIC); format: cell-based; settings: in combination with MBI 26 (1.25 μg/mL)
[2] = α helical content by CD spectra; format: physicochemical
Procedure: The α helical content of the peptides were measured in buffer, liposomes and 20% Hexafluoroisopropanol (HFPIP). The liposomes constituted of POPC alone or POPC PC and 30% POPG (Table 7).

Red Blood Cells = experiment: Red Blood Cell lysis; format: cell-based
E. coli ML 35 = experiment: Inner membrane permeabilization (β-galactosidase, ONPG); format: cell-based; settings: inner membrane permeabilization; for Lag Time: E. coli ML 35; for Rate of Hydrolysis: E. coli ML 35, ONPG
Procedure: Inner membrane permeability was determined by measurement in E. coli ML 35 of β-galactosidase activity using ONPG as a substrate. Normally ONPG cannot pass across the cytoplasmic membrane to permit hydrolysis by the cytoplasmic enzyme β-galactosidase. However, cationic peptides, by permeabilizing the inner membrane, unmasks this enzyme leading to color development as ONP is released. […] Addition of citrate increased the lag time before the peptides were able to permeabilize the membranes. When the experiments were executed in cation adjusted media (CAMHB), the lag time was increased up to 30 minutes.

[3] = Dansyl polymyxin displacement assay; format: binding; settings: Dansyl polymyxin displacement from LPS
From the text: In addition, the peptides of SEQ ID NO: 5-8 also bound effectively to LPS with high affinity based on Dansyl polymyxin displacement assays (Table 5).

Row | Compound | reduction in MIC [1] [×] | % α helicity ([2]; 20% HFIP) [%] | % α helicity ([2]; Buffer) [%] | % α helicity ([2]; POPC Liposomes) [%] | % α helicity ([2]; POPC/POPG Liposomes) [%] | RBC Lysis (Red Blood Cells) [µg/mL] | Lag Time (E. coli ML 35) [s] | Rate of Hydrolysis (E. coli ML 35) | Imax [3] [%]
1 | CO[C@@H]1[C@@H](OC(N)=O)[C@@H](O)[C@H](Oc2ccc3c(O)c(NC(=O)c4ccc(O)c(CC=C(C)C)c4)c(=O)oc3c2C)OC1(C)C [Novobiocin] | > 4 |  |  |  |  |  |  |  | 
2 | CC1(C)S[C@@H]2[C@H](NC(=O)C(C(=O)O)c3ccccc3)C(=O)N2[C@H]1C(=O)O (stereo partly drawn) [carbenicillin] | 2 |  |  |  |  |  |  |  | 
3 | KWKKFIKELQKVLAPGGLLSNIVTSL [compound 493] |  | 42 | 0 | 18 | 20 | >55 | 136 | 0.14 ΔAU min^−1 | 56
4 | KWKSFIKNLEKVLKKGPILANLVSIV [compound 491] |  | 44 | 0 | 0 | 15 | >55 | 152 | 0.14 ΔAU min^−1 | 24
5 | KWKSFIKNLEKVLKPGGLLSNIVTSL [compound 490] |  | 41 | 0 | 29 | 27 | >55 | 156 | 0.081 ΔAU min^−1 | 40
6 | Lysozyme | > 64 |  |  |  |  |  |  |  | 
